The structures appear in SMILES notation. pIC50: −log10 of the molar value.

This assay has as its target 11β-HSD1 (Homo sapiens, UniProt P28845). The experiment in a line: Inhibition of a microsomal preparation of 11β-HSD1, scintillation proximity assay, microsomes from CHO cells overexpressing human 11β-HSD1 (biological test example 2). Conditions: microsomes from CHO cells overexpressing human 11β-HSD1, SPA, [3H]cortisone, 90 minutes at room temperature; read-out: IC50, inhibitory activity on 11β-HSD 1. In kind it is biochemical. Details: expressed in transfected cells; host or cells: CHO cells (microsomes isolated from them). The protocol:
All reactions were carried out at room temperature in 96 well clear flexible PET Microbeta plates (PerkinElmer). The assay begins by dispensing 49 μl of substrate solution [50 mM HEPES, pH 7.4, 100 mM KCl, 5 mM NaCl, 2 mM MgCl2, 2 mM NADPH and 160 nM [^3H]cortisone (1 Ci/mmol)] and mixing in 1 μL of the test compounds in dimethyl sulfoxide previously diluted in half-log increments (8 points) starting at 0.1 mM. After a 10 minute pre-incubation, 50 μL of enzyme solution containing microsomes isolated from CHO cells overexpressing human 11β-HSD1 (10-20 μg/ml of total protein) was added, and the plates were incubated for 90 minutes at room temperature. The reaction was stopped by adding 50 μl of the SPA beads suspension containing 10 μM 18β-glycyrrhetinic acid, 5 mg/ml protein A coated YSi SPA beads (GE Healthcare) and 3.3 μg/ml of anti-cortisol antibody (East Coast Biologics) in Superblock buffer (Bio-Rad). The plates were shaken for 120 minutes at room temperature, and the SPA signal corresponding to [^3H]cortisol was measured on a Microbeta plate reader.
(In a scintillation proximity assay essentially only radioactivity close to the scintillant gives light.)

Chain of 11β-HSD1 (P28845 whole entry): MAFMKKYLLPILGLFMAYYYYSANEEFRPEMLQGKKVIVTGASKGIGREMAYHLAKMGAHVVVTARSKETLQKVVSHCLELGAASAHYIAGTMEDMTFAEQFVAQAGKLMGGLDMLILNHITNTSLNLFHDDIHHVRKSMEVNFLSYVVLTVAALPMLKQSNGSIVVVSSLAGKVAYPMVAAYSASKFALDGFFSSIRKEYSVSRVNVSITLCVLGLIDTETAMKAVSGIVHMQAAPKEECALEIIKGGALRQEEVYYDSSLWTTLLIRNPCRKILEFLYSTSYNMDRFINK

Usually pIC50 stands for −log10 of the IC50, conventionally taken in molar units. For `C[C@@H](c1ccc(-c2cnc(N3CCN(C)C3=O)nc2)cc1)N1CC[C@](CC(C)(C)O)(c2ccccc2)OC1=O` [Example 29, (S)-6-(2-hydroxy-2-methylpropyl)-3-((S)-1-{4-[2-(3-methyl-2-oxoimidazolidin-1-yl)pyrimidin-5-yl]phenyl}ethyl)-6-phenyl-1,3-oxazinan-2-one], the pIC50 is 8.01.

With `C[C@@H](c1ccc(-c2ccc(C3(C(N)=O)CC3)nc2)cc1)N1CC[C@@](CC2CC2)(CC(C)(C)O)OC1=O` [Example 59, 1-[5-(4-{(S)-1-[(S)-6-Cyclopropylmethyl-6-(2-hydroxy-2-methyl-propyl)-2-oxo-[1,3]oxazinan-3-yl]-ethyl}-phenyl)-pyridin-2-yl]-cyclopropanecarboxylic acid amide], the negative logarithm of the IC50 (pIC50) is 8.19.

Turning to `C[C@@H](c1ccc(-c2ccnc(N3CCOCC3)n2)cc1)N1CC[C@](CC(C)(C)O)(c2ccccc2)OC1=O` [Example 38, (S)-6-(2-hydroxy-2-methylpropyl)-3-{(S)-1-[4-(2-morpholinopyrimidin-4-yl)phenyl]ethyl}-6-phenyl-1,3-oxazinan-2-one], the pIC50 is 8.64.

For `C[C@@H](c1ccc(-c2cnc(N3CCNC3=O)nc2)cc1)N1CC[C@](CC(C)(C)O)(c2ccccc2)OC1=O` [Example 28, (S)-6-(2-hydroxy-2-methylpropyl)-3-((S)-1-{4-[2-(2-oxoimidazolidin-1-yl)pyrimidin-5-yl]phenyl}ethyl)-6-phenyl-1,3-oxazinan-2-one], the pIC50 was 8.08.

As to `C[C@@H](c1ccc(-c2cccc(N3CCCCC3=O)n2)cc1)N1CC[C@](CC(C)(C)O)(c2ccccc2)OC1=O` [Example 39, (S)-6-(2-hydroxy-2-methylpropyl)-3-((S)-1-{4-[6-(2-oxopiperidin-1-yl)pyridin-2-yl]phenyl}ethyl)-6-phenyl-1,3-oxazinan-2-one], the pIC50 is 8.43.

In the case of `C[C@@H](c1ccc(-c2cccc(N3CCOCC3)n2)cc1)N1CC[C@](CC(C)(C)O)(c2ccccc2)OC1=O` [Example 40, (S)-6-(2-hydroxy-2-methylpropyl)-3-{(S)-1-[4-(6-morpholinopyridin-2-yl)phenyl]ethyl}-6-phenyl-1,3-oxazinan-2-one], the pIC50 is 8.96.

Turning to `C[C@@H](c1ccc(-c2cnc(N3CCCC3=O)nc2)cc1)N1CC[C@](CC(C)(C)O)(c2ccccc2)OC1=O` [Example 30, (S)-6-(2-hydroxy-2-methylpropyl)-3-((S)-1-{4-[2-(2-oxopyrrolidin-1-yl)pyrimidin-5-yl)phenyl]ethyl}-6-phenyl-1,3-oxazinan-2-one], the pIC50 was 8.49.

For `C[C@@H](c1ccc(-c2ccc(=O)n(C3COC3)c2)cc1)N1CC[C@](CC(C)(C)O)(c2ccccc2)OC1=O` [Example 58, (S)-6-(2-Hydroxy-2-methyl-propyl)-3-{(S)-1-[4-(1-oxetan-3-yl-6-oxo-1,6-dihydro-pyridin-3-yl)-phenyl]-ethyl}-6-phenyl-[1,3]oxazinan-2-one], the pIC50 is 8.37.

As to `C[C@@H](c1ccc(-c2ccc(C3(C(N)=O)CC3)nc2)cc1)N1CC[C@](CC(C)(C)O)(c2ccccc2)NC1=O` [Example 49, 1-[5-(4-{(S)-1-[(S)-4-(2-Hydroxy-2-methyl-propyl)-2-oxo-4-phenyl-tetrahydro-pyrimidin-1-yl]-ethyl}-phenyl)-pyridin-2-yl]-cyclopropanecarboxylic acid amide], the pIC50 is 8.82.

In the case of `C[C@@H](c1ccc(-c2csc(-n3ccccc3=O)n2)cc1)N1CC[C@](CC(C)(C)O)(c2ccccc2)OC1=O` [Example 37, (S)-6-(2-hydroxy-2-methylpropyl)-3-((S)-1-{4-[2-(2-oxopyridin-1(2H)-yl)thiazol-4-yl]phenyl}ethyl)-6-phenyl-1,3-oxazinan-2-one], the pIC50 was 9.30.

On to `C[C@@H](c1ccc(-c2cccc(-n3ccccc3=O)n2)cc1)N1CC[C@](CC(C)(C)O)(c2ccccc2)OC1=O` [Example 41, (S)-6-(2-hydroxy-2-methylpropyl)-3-((S)-1-{4-[6-(2-oxopyridin-1 (2H)-yl)pyridin-2-yl]phenyl}ethyl)-6-phenyl-1,3-oxazinan-2-one], for which the pIC50 was 8.64.

On to `C[C@@H](c1ccc(-c2ccn(C3COC3)c(=O)c2)cc1)N1CC[C@](CC(C)(C)O)(c2ccccc2)OC1=O` [Example 26, (S)-6-(2-hydroxy-2-methylpropyl)-3-((S)-1-{4-[1-(oxetan-3-yl)-2-oxo-1,2-dihydropyridin-4-yl]phenyl}ethyl)-6-phenyl-1,3-oxazinan-2-one], for which the pIC50 is 8.28.

As to `C[C@@H](c1ccc(-c2ccn(C3CNC3)c(=O)c2)cc1)N1CC[C@](CC(C)(C)O)(c2ccccc2)OC1=O` [Example 27, 3-((S)-1-{4-[1-(azetidin-3-yl)-2-oxo-1,2-dihydropyridin-4-yl]phenyl}ethyl)-(S)-6-(2-hydroxy-2-methylpropyl)-6-phenyl-1,3-oxazinan-2-one], the pIC50 was 7.56.

Turning to `C[C@@H](c1ccc(-c2cnc(N3CC(O)C3)nc2)cc1)N1CC[C@](CC(C)(C)O)(c2ccccc2)OC1=O` [Example 35, (S)-6-(2-hydroxy-2-methylpropyl)-3-((S)-1-{4-[2-(3-hydroxyazetidin-1-yl)pyrimidin-5-yl]phenyl}ethyl)-6-phenyl-1,3-oxazinan-2-one], the pIC50 is 8.55.

As for `C[C@@H](c1ccc(-c2cnc(N3CCC3)nc2)cc1)N1CC[C@](CC(C)(C)O)(c2ccccc2)OC1=O` [Example 34, 3-((S)-1-{4-[2-(azetidin-1-yl)pyrimidin-5-yl)phenyl]ethyl}-(S)-6-(2-hydroxy-2-methylpropyl)-6-phenyl-1,3-oxazinan-2-one], the pIC50 is 9.00.

Turning to `C[C@@H](c1ccc(-c2cnc(-n3ccccc3=O)s2)cc1)N1CC[C@](CC(C)(C)O)(c2ccccc2)OC1=O` [Example 36, (S)-6-(2-hydroxy-2-methylpropyl)-3-((S)-1-{4-[2-(2-oxopyridin-1 (2H)-yl)thiazol-5-yl]phenyl}ethyl)-6-phenyl-1,3-oxazinan-2-one], the pIC50 is 9.10.

Consider `C[C@@H](c1ccc(-c2cnc(N3CC(F)C3)nc2)cc1)N1CC[C@](CC(C)(C)O)(c2ccccc2)OC1=O` [Example 32, 3-((S)-1-{4-[2-(3-fluoroazetidin-1-yl)pyrimidin-5-yl]phenyl}ethyl)-(S)-6-(2-hydroxy-2-methylpropyl)-6-phenyl-1,3-oxazinan-2-one], for which the pIC50 is 9.15.

Take `C[C@@H](c1ccc(-c2ccc(N3CCC3)nn2)cc1)N1CC[C@](CC(C)(C)O)(c2ccccc2)OC1=O` [Example 31, 3-((S)-1-{4-[6-(azetidin-1-yl)pyridazin-3-yl]phenyl}ethyl)-(S)-6-(2-hydroxy-2-methylpropyl)-6-phenyl-1,3-oxazinan-2-one]: the pIC50 is 9.05.

The record behind these values is patent US9090605B2, “Substituted 5-,6- and 7-membered heterocycles, medicaments containing such compounds, and their use” (Vitae Pharmaceuticals, Inc., priority 2010, dated 2015).
